Results as given in paper PMC6277767, “Broad and Region-Specific Impacts of the Synthetic Cannabinoid CP 55,940 in Adolescent and Adult Female Mouse Brains” (Frontiers in Molecular Neuroscience, 2018).

System: CD1 female mouse brain lipidome
Test: Brain-region lipid levels (HPLC/MS/MS lipidomics) 2 h after single i.p. 3 mg/kg CP 55,940 vs vehicle
Format: in vivo
Parameters: N-arachidonoyl phenylalanine level, Mean / N-stearoyl tryptophan level, Mean / N-stearoyl proline level, Mean / N-stearoyl leucine level, Mean / N-stearoyl phenylalanine level, Mean / N-stearoyl serine level, Mean / N-stearoyl methionine level, Mean: unit: moles per gram
Conditions: midbrain
Experimental: The Bloomington Institutional Animal Care and Use Committee of Indiana University reviewed and approved the animal procedures. Female mice from the CD1 strain were utilized to match our study examining THC’s effects on the brain lipidome ([Leishman et al., 2018]). Mice were given a single i.p. injection of either 3 mg/kg CP or 1:1:18 cremophor:ethanol:saline vehicle (please refer to the section “3 mg/kg CP Is Relevant for Synthetic Cannabinoid Abuse and Has Stronger Effects on the Female Mouse Brain Lipidome During Adolescence” for a justification of dose and use of female mice). Three different age groups were given injections: PND 35 and PND 50 adolescents, and adult mice (PND 113). At least eight mice in each age group received CP and at least eight received vehicle. Matching the THC study time course ([Leishman et al., 2018]), mice were sacrificed via rapid decapitation 2 h after injection. Brains were immediately removed and flash-frozen in liquid nitrogen, and then stored at -80°C until dissections were performed. Brains were dissected on an ice-cold dissection plate into the following regions: STR, HIPP, CER, THAL, CTX, HYP, MID, and STEM. These abbreviations for these brain areas will be used exclusively when discussing the results generated by these specific dissections. Each dissected area was immediately placed in liquid nitrogen and then stored at -80°C until used for lipid extraction.
Tissue extracts were performed as previously described ([Bradshaw et al., 2006]; [Stuart et al., 2013]; [Raboune et al., 2014]; [Leishman et al., 2016a],[b], [2017], [2018]). First, samples were shock frozen in liquid nitrogen, weighed, and transferred to a centrifuge tube. The mass of the largest sample was multiplied by 50 to determine how many milliliters of HPLC-grade methanol (Fisher, Fair Lawn, NJ, United States) to add. Then, samples were spiked with 500 pmol deuterium-labeled NAGly (d8NAGly; Cayman Chemical, Ann Arbor, MI, United States). Samples were placed on ice in darkness for 2 h then individually homogenized and centrifuged at 19,000 × g for 20 min at 20°C. Supernatants were diluted with HPLC water (purified in house) to make a solution of 75% water, 25% supernatant. Lipids were partially purified on C18 solid phase extraction columns (Agilent, Palo Alto, CA, United States). A series of four elutions with 1.5 mL of 60%, 75%, 85%, and 100% methanol were collected ([Stuart et al., 2013]; [Leishman et al., 2016a],[b], [2018]).
As previously described ([Bradshaw et al., 2006]; [Tan et al., 2006]; [Smoum et al., 2010]; [Stuart et al., 2013]; [Tortoriello et al., 2013]; [Raboune et al., 2014]; [Leishman et al., 2016a],[b], [2017], [2018]), samples were analyzed using an Applied Biosystems API 3000 triple quadrupole mass spectrometer with electrospray ionization (Foster City, CA, United States). Using an Agilent XDB-C18 reversed phase analytical column and optimized mobile phase gradients, 20 μL from each elution were chromatographed. Two Shimadzu 10ADvp pumps (Columbia, MD, United States) provided the pressure for gradient elution. Mobile phase A: 20% methanol, 80% water (v/v) and 1 mM ammonium acetate (Sigma, St. Louis, MO, United States). Mobile phase B: 100% methanol, 1 mM ammonium acetate. Every method run began with 0% mobile phase B, reached 100% mobile phase B flowing at 0.2 mL/min, and gradually returned to 0% mobile phase B.
This screening library will be referred to as the lipidome when discussing data from this study. HPLC/MS/MS data were analyzed using Analyst software (Applied Biosystems) ([Bradshaw et al., 2006]; [Tan et al., 2006]; [Stuart et al., 2013]; [Tortoriello et al., 2013]; [Raboune et al., 2014]; [Leishman et al., 2016a],[b], [2017], [2018]). Chromatograms (Supplementary Figure 3) were generated by determining the retention time of analytes from the analytical column with a [M-1] or [M+1] parent peak and a fragmentation peak corresponding to the programmed values. […]

[1] = PND 50 female mice, 3mg/kg CP 55,940
[2] = PND 35 WT adolescent female mice, 3 mg/kg

Q: CCCCCCC(C)(C)c1ccc([C@@H]2C[C@H](O)CC[C@H]2CCCO)c(O)c1 [CP 55,940] was tested. Which “N-linoleoyl serine level, Mean” value [1] did it give?
A: 6.73E-11

Q: What about the “N-linoleoyl tryptophan level, Mean” value [1] of the same molecule?
A: BDL

Q: And the “N-linoleoyl tyrosine level, Mean” value [1]?
A: BDL

Q: And the “N-linoleoyl valine level, Mean” value [1]?
A: BDL

Q: What about the “N-nervonoyl valine level, Mean” value [1] of the same molecule?
A: BDL

Q: What about the “N-oleoyl GABA level, Mean” value [1] of the same molecule?
A: 5.62E-12

Q: And the “N-oleoyl alanine level, Mean” value [1]?
A: 6.9E-13

Q: And the “N-oleoyl dopamine level, Mean” value [1]?
A: BDL

Q: And the “N-oleoyl ethanolamine level, Mean” value [1]?
A: 1.01E-10

Q: What about the “N-oleoyl glycine level, Mean” value [1] of the same molecule?
A: 3.06E-12

Q: And the “N-oleoyl leucine level, Mean” value [1]?
A: 5.64E-13

Q: What about the “N-oleoyl methionine level, Mean” value [1] of the same molecule?
A: 3.18E-13

Q: And the “N-oleoyl phenylalanine level, Mean” value [1]?
A: 1.15E-12

Q: And the “N-oleoyl proline level, Mean” value [1]?
A: BDL

Q: What about the “N-oleoyl serine level, Mean” value [1] of the same molecule?
A: 1.24E-10

Q: And the “N-oleoyl tryptophan level, Mean” value [1]?
A: BDL

Q: What about the “N-oleoyl tyrosine level, Mean” value [1] of the same molecule?
A: 3.77E-13

Q: And the “N-oleoyl valine level, Mean” value [1]?
A: 6.01E-14

Q: And the “N-palmitoyl GABA level, Mean” value [1]?
A: 1.3E-11

Q: And the “N-palmitoyl alanine level, Mean” value [1]?
A: 1.18E-12

Q: And the “N-palmitoyl ethanolamine level, Mean” value [1]?
A: 7.69E-11

Q: What about the “N-palmitoyl glycine level, Mean” value [1] of the same molecule?
A: 1.39E-11

Q: What about the “N-palmitoyl leucine level, Mean” value [1] of the same molecule?
A: 1.38E-12

Q: What about the “N-palmitoyl methionine level, Mean” value [1] of the same molecule?
A: 1.13E-12

Q: And the “N-palmitoyl phenylalanine level, Mean” value [1]?
A: 1.94E-12

Q: What about the “N-palmitoyl proline level, Mean” value [1] of the same molecule?
A: BDL

Q: And the “N-palmitoyl serine level, Mean” value [1]?
A: 1.74E-11

Q: And the “N-palmitoyl tryptophan level, Mean” value [1]?
A: BDL

Q: What about the “N-palmitoyl tyrosine level, Mean” value [1] of the same molecule?
A: 8.39E-13

Q: And the “N-palmitoyl valine level, Mean” value [1]?
A: 3.48E-13

Q: What about the “N-stearoyl GABA level, Mean” value [1] of the same molecule?
A: 1.21E-11

Q: What about the “N-stearoyl alanine level, Mean” value [1] of the same molecule?
A: 3.21E-13

Q: And the “N-stearoyl ethanolamine level, Mean” value [1]?
A: 3.26E-11

Q: And the “N-stearoyl glycine level, Mean” value [1]?
A: 1.13E-12

Q: What about the “N-stearoyl leucine level, Mean” value [1] of the same molecule?
A: 7.66E-13

Q: And the “N-stearoyl methionine level, Mean” value [1]?
A: 1.11E-12

Q: What about the “N-stearoyl phenylalanine level, Mean” value [1] of the same molecule?
A: 1.62E-12

Q: What about the “N-stearoyl proline level, Mean” value [1] of the same molecule?
A: BDL

Q: And the “N-stearoyl serine level, Mean” value [1]?
A: 3.85E-11

Q: What about the “N-stearoyl tryptophan level, Mean” value [1] of the same molecule?
A: BDL

Q: What about the “N-stearoyl tyrosine level, Mean” value [1] of the same molecule?
A: 1.16E-13

Q: What about the “Oleic acid level, Mean” value [1] of the same molecule?
A: 3.11E-10

Q: And the “PGE2 level, Mean” value [1]?
A: 1.09E-10

Q: And the “PhosphoLEA level, Mean” value [1]?
A: PISSR

Q: What about the “THC level, Mean” value [1] of the same molecule?
A: BDL

Q: And the “2-arachidonoyl glycerol level, Mean” value [2]?
A: 3.74E-10

Q: And the “2-linoleoyl glycerol level, Mean” value [2]?
A: 1.59E-10

Q: And the “2-oleoyl glycerol level, Mean” value [2]?
A: 1.88E-09

Q: And the “2-palmitoyl glycerol level, Mean” value [2]?
A: 4.69E-10

Q: What about the “6-ketoPGF1α level, Mean” value [2] of the same molecule?
A: 2.09E-11

Q: And the “Arachidonic acid level, Mean” value [2]?
A: 1.63E-09

Q: What about the “Linoleic acid level, Mean” value [2] of the same molecule?
A: 5.14E-10

Q: And the “N- stearoyl valine level, Mean” value [2]?
A: 1.32E-12

Q: What about the “N-arachidonoyl GABA level, Mean” value [2] of the same molecule?
A: 1.53E-11

Q: What about the “N-arachidonoyl alanine level, Mean” value [2] of the same molecule?
A: 8.2E-12

Q: And the “N-arachidonoyl ethanolamine level, Mean” value [2]?
A: 2.18E-11

Q: And the “N-arachidonoyl glycine level, Mean” value [2]?
A: 4.42E-11

Q: And the “N-arachidonoyl methionine level, Mean” value [2]?
A: 1.48E-12

Q: What about the “N-arachidonoyl phenylalanine level, Mean” value [2] of the same molecule?
A: 1.53E-12

Q: And the “N-arachidonoyl serine level, Mean” value [2]?
A: 6.81E-12

Q: What about the “N-arachidonoyl taurine level, Mean” value [2] of the same molecule?
A: 3.84E-11

Q: And the “N-arachidonoyl tyrosine level, Mean” value [2]?
A: 1.5E-12

Q: What about the “N-docosahexaenoyl GABA level, Mean” value [2] of the same molecule?
A: 2.08E-12

Q: And the “N-docosahexaenoyl alanine level, Mean” value [2]?
A: 3.78E-12

Q: And the “N-docosahexaenoyl ethanolamine level, Mean” value [2]?
A: 3.99E-11

Q: What about the “N-docosahexaenoyl glycine level, Mean” value [2] of the same molecule?
A: 1.87E-11

Q: What about the “N-docosahexaenoyl leucine level, Mean” value [2] of the same molecule?
A: 7.41E-13

Q: And the “N-docosahexaenoyl methionine level, Mean” value [2]?
A: 4.7E-13

Q: What about the “N-docosahexaenoyl phenylalanine level, Mean” value [2] of the same molecule?
A: 1.08E-12

Q: What about the “N-docosahexaenoyl serine level, Mean” value [2] of the same molecule?
A: 2.39E-11

Q: And the “N-docosahexaenoyl tyrosine level, Mean” value [2]?
A: 1.6E-12

Q: What about the “N-docosahexaenoyl valine level, Mean” value [2] of the same molecule?
A: 3.26E-13

Q: What about the “N-linoleoyl GABA level, Mean” value [2] of the same molecule?
A: 7.43E-13

Q: And the “N-linoleoyl alanine level, Mean” value [2]?
A: 1.52E-12

Q: And the “N-linoleoyl ethanolamine level, Mean” value [2]?
A: 3.78E-11

Q: And the “N-linoleoyl glycine level, Mean” value [2]?
A: 4.58E-12

Q: What about the “N-linoleoyl leucine level, Mean” value [2] of the same molecule?
A: 3.56E-13

Q: What about the “N-linoleoyl phenylalanine level, Mean” value [2] of the same molecule?
A: 2.21E-13

Q: And the “N-linoleoyl serine level, Mean” value [2]?
A: 5.04E-11

Q: And the “N-oleoyl GABA level, Mean” value [2]?
A: 4E-12

Q: What about the “N-oleoyl alanine level, Mean” value [2] of the same molecule?
A: 7.02E-12

Q: What about the “N-oleoyl ethanolamine level, Mean” value [2] of the same molecule?
A: 1.94E-10

Q: What about the “N-oleoyl glycine level, Mean” value [2] of the same molecule?
A: 2.31E-11

Q: And the “N-oleoyl leucine level, Mean” value [2]?
A: 1.53E-12

Q: What about the “N-oleoyl methionine level, Mean” value [2] of the same molecule?
A: 1.46E-12

Q: And the “N-oleoyl phenylalanine level, Mean” value [2]?
A: 1.6E-12

Q: What about the “N-oleoyl serine level, Mean” value [2] of the same molecule?
A: 2.91E-10

Q: And the “N-oleoyl tryptophan level, Mean” value [2]?
A: 1.39E-13

Q: What about the “N-oleoyl tyrosine level, Mean” value [2] of the same molecule?
A: 1.05E-12

Q: What about the “N-oleoyl valine level, Mean” value [2] of the same molecule?
A: 1.38E-12

Q: What about the “N-palmitoyl GABA level, Mean” value [2] of the same molecule?
A: 1.05E-11

Q: What about the “N-palmitoyl alanine level, Mean” value [2] of the same molecule?
A: 1.05E-11

Q: And the “N-palmitoyl ethanolamine level, Mean” value [2]?
A: 9.08E-11

Q: What about the “N-palmitoyl glycine level, Mean” value [2] of the same molecule?
A: 4.59E-11

Q: What about the “N-palmitoyl leucine level, Mean” value [2] of the same molecule?
A: 3.23E-12

Q: And the “N-palmitoyl methionine level, Mean” value [2]?
A: 2.56E-12

Q: What about the “N-palmitoyl phenylalanine level, Mean” value [2] of the same molecule?
A: 3.04E-12

Q: And the “N-palmitoyl proline level, Mean” value [2]?
A: 9.03E-13

Q: What about the “N-palmitoyl serine level, Mean” value [2] of the same molecule?
A: 9.45E-11

Q: What about the “N-palmitoyl tryptophan level, Mean” value [2] of the same molecule?
A: 4.42E-13

Q: What about the “N-palmitoyl tyrosine level, Mean” value [2] of the same molecule?
A: 2.19E-12

Q: What about the “N-palmitoyl valine level, Mean” value [2] of the same molecule?
A: 2.86E-12
